Laboratory results reported in patent publication US5646149A, “Compounds having both potent calcium antagonist and antioxidant activity and use thereof as cytoprotective agents” (Alcon Laboratories, Inc., priority 1995, dated 1997).
Like-named read-outs stand apart in the source and are kept apart here.

Key:
[1] = value from Free Rad. Res. Comms., volume 15, pages 91-100 (1991); cited from earlier work
Singlet oxygen quenching = experiment: Singlet oxygen quenching; design: key: IA: inactive; conditions: 37° C., ethanol/chloroform (50:50), 5 mM NDPO2
Protocol: The singlet oxygen quenching activity was studied in the following manner. Singlet oxygen was generated chemically by using thermodissociation of the endoperoxide 3,3'-(1,4-naphthylidene dipropionate), NPDO2. At 37° C., 3 ml ethanol/chloroform (50:50) were placed in a thermosrated cuvette. Reactions were started by injection of 5 mM NDPO2. The singlet oxygen quenching constants were calculated according to Stern-Volmer plots, from S0 /S=1+(Kq+KR)*[Q}*I, where S0, S--chemiluminesence (1270 nm) intensities in absence and in the presence of quenchers, respectively, [Q} is the quencher concentration and I is the lifetime of singlet oxygen (see J. Amer. Chem., volume 111, pages 2904-2914, (1989)).

Liver Microsomes = experiment: Liver microsome lipid peroxidation assay; assay type: biochemical
Protocol: (§1) The DPPH assay is a chemical assay used to determine free radical scavenging activity. The retinal pieces, liver microsomes and phospholipid oxidation models measure antioxidant activity. The calcium binding assay is a measure of the affinity of the compound for a calcium antagonist binding site. The test procedures are described in greater detail below.
Antioxidant activity was also measured using a liver microsome assay (Chem. Biol. Interactions., volume 74, pages 233-52, (1990)). Microsomes were incubated in a KPi buffer. Lipid oxidation was initiated with ADP(1 mM)/FeCl3 (10 μM) and NADPH regenerating system, containing NADP^+. The lipid peroxidation was assayed by the TBA test. Malondialdehyde (MDA) was estimated by the formation of thiobarbituric acid-reactive substances. MDA-equivalents were calculated using ε=156 mM^- cm^-1. IC50S were calculated using regression lines.

bovine retinal pieces = experiment: Cytoprotection / lipid peroxidation (TBARS) in bovine retinal pieces after hypoxia-reoxygenation; assay type: cell-based
Protocol: The DPPH assay is a chemical assay used to determine free radical scavenging activity. The retinal pieces, liver microsomes and phospholipid oxidation models measure antioxidant activity. The calcium binding assay is a measure of the affinity of the compound for a calcium antagonist binding site. The test procedures are described in greater detail below. The cytoprotective effects of the compounds were measured using bovine retinal pieces. […] After 50 minutes of hypoxia, test agents were added to the media to allow 10 minutes for the drug to diffuse into the tissue prior to reoxygenation. Vehicle was added to the non-drug group. Following the incubation period, the tissue was reoxygenated for 1 h. Lipid peroxidation was assessed by the formation of thiobarbituric acid reacting substances (TBARS). The tissues were homogenized and added to TCA-TBA reagent and heated in the presence of BHT. The homogenate was filtered and the absorbance of the supernatant was measured spectrophotometrically. A double derivative technique was used to calculate the concentration of TBARS present in each sample. Quantitation was based on molar extinction coefficient of 1.56×10^5.

[2] = Phospholipid oxidation assay in liposomes; assay type: biochemical
Protocol: as §1
Antioxidant activity was measured using a phospholipid oxidation assay. Liposomes formed from dilineoleolyl phosphocholine were exposed to Fe^+3 /EDTA (167 μM) and ascorbate (167 μM). Oxidation was measured by conjugate diene formation monitored using UV spectroscopy (Biochim. Biophys. Acta., volume 1081, pages 181-187, (1991)). The IC50 was calculated using the following non-linear regression algorithm: Y=A/[1+(B/X)^c ], wherein A=maximum, B=IC50 and c=cooperativity or relative broadness of the curves. The minimum was assumed to be zero.

[3] = DPPH free radical scavenging assay; conditions: 30 min
Protocol: as §1
Free radical scavenging activity was determined by measuring the test compound's ability to quench a ethanol solution of the free radical dye, 1,1-diphenyl-2-picrylhydrazyl, (DPPH). Test agents were dissolved in 95% ethanol and were added to a solution of DPPH in 95% ethanol. The final concentration of both the test compound and DPPH was 0.4 mMol. Absorbance was continuously recorded on a Perkin-Elmer Lamba 4B spectrophotometer. The percent quench was measured thirty minutes following the combination of the two solutions. (Free Rad. Res. Comms., volume 15, pages 91-100 (1991)).

retina of albino rats = experiment: Retinal light damage model (photochemical lesions, histology); assay type: in vivo, rat; conditions: intraperitoneal, 48 h light exposure
Protocol: (§2) The retinoprotective properties of the compounds were measured in a light damage model. Photochemical lesions were induced in free moving unanesthetized albino rats by a single 48 h continuous broad-band florescent visible-light exposure. The rats were dosed by intraperitoneal injection 48 and 24 h prior to exposure, every 24 h during the exposure and once during the 24 h recovery period. Ocular tissues were obtained 24 h after light exposure. The tissues were analyzed using a quantitative computer image analyses system attached to the microscope. Retinal layer thickness, number of macrophages in the subretinal space, number of pyknotic nuclei in the outer nuclear layer, and retinal layer areas were parameters that were measured and statistically analyzed.
Control rats remaining on their normal 12 h light/12 h dark light cycle were devoid of retinal lesions upon microscopic examination and were assessed to have normal retinal function. […] The number of pyknotic photoreceptor nuclei was reduced by 50% in the outer nuclear layer compared to non-dosed animals.

[4] = biological target: calcium antagonist binding site; experiment: Calcium binding, radioligand (nitrendipine) binding assay in rat brain cortices; conditions: radiolabeled nitrendipine
Protocol: as §1
Calcium binding was measured using a radioligand binding assay. Brain cortices were removed from rats and a membrane fraction was prepared by standard techniques. The membrane preparation was incubated with radiolabeled nitrendipine. Non-specific binding was estimated in the presence of non-labeled nitrendipine. Membranes were filtered and washed and the filters were counted to determine radiolabelled […] Acad. Sci. USA, volume 79, pages 3656-3660 (1982), Life Sci., volume 30, pages 2191-2202, (1982).

retinal function of rats = experiment: Ocular function by electroretinography after light exposure; assay type: in vivo, rat; conditions: ERG a-wave and b-wave after 48 h light exposure
Protocol: as §2
Ocular function was measured using electroretinography. Rats were anesthetized after a four-day recovery period in the dark. Flash ERGs were elicited by viewing a ganzfield. Electrical responses to a series of light flashes increasing in intensity were digitized to analyze response voltage-log intensity relationships.
Retinal function was assessed by measuring the electroretinogram after 48 h light exposure. The ERG allows differential examination of photoreceptor activity (a-wave) and inner nuclear layer function (b-wave) which is correlated to retinal morphology change.

[5] = ADP (1 mM)/FeCl3 (10 μM), NADPH regenerating system, TBA test
[6] = Fe^+3/EDTA (167 μM) and ascorbate (167 μM), conjugate diene formation, read-out: Phospholipid Oxidation IC50
[7] = Summary of Activity table, read-out: Phosopholipid Oxidation IC50
[8] = Summary of Activity table, test compound and DPPH 0.4 mMol
[9] = test compound and DPPH 0.4 mMol in 95% ethanol, thirty minutes
[10] = Bos taurus, Summary of Activity table, bovine retinal pieces
[11] = Summary of Activity table, rat brain cortices, read-out: Ca+2 Binding IC50
[12] = rat brain cortices membrane, read-out: Ca^+2 Binding IC50

Row | IC50 (Liver Microsomes; [5]) [nM] | IC50 (Liver Microsomes; Summary of Activity table) [nM] | IC50 (bovine retinal pieces; Summary of Activity table, bovine retinal pieces) [nM] | IC50 (bovine retinal pieces; bovine retina, hypoxia 1 h, agent added after 50 minutes, reoxygenation 1 h, TBARS) [nM] | IC50 [2, 6] [nM] | IC50 [2, 7] [nM] | IC50 (bovine retinal pieces; [10]) [nM] | IC50 [4, 11] [nM] | IC50 [4, 12] [nM] | Compound | DPPH (% Quench), literature value [1] [%] | Singlet Oxygen Quenching Kq (Singlet oxygen quenching) | DPPH (% Quench) [3, 8] [%] | DPPH (% Quench) [3, 9] [%] | Damage to photoreceptor cells (retina of albino rats) | RPE damage (retina of albino rats) | outer and inner segment damage (photoreceptor length) (retina of albino rats) | reduction of number of pyknotic photoreceptor nuclei in the outer nuclear layer (retina of albino rats; compared to non-dosed animals) [%] | Macrophages in the subretinal space, compared to control values (retina of albino rats; vs control values) | Macrophages in the subretinal space, compared to non-dosed light exposed rats (retina of albino rats; vs non-dosed light exposed rats) | preservation of retinal function (electroretinogram) (retinal function of rats)
1 | 27100 | 27100 | – | – | – | – | – | – | – | Fc1ccc(C(c2ccc(F)cc2)N2CCN(C/C=C/c3ccccc3)CC2)cc1 [Flunarizine] | 10 | 5e+06 M⁻¹ s⁻¹ | – | – | – | – | – | – | – | – | –
2 | – | – | – | – | 180 | – | 50 | 1000 to 10000 | 1000 to 10000 | Cc1c(C)c2c(c(C)c1O)CCC(C)(CN1CCN(C(c3ccc(F)cc3)c3ccc(F)cc3)CC1)O2 (stereo not drawn) [Compound No. 2, 1-(4,4'-difluorobenzhydryl)-4-(6-hydroxy-2,5,6,8-tetramethylchroman-2-methyl)piperazine dimaleate hemihydrate] | – | 1.6e+08 M⁻¹ s⁻¹ | 96 | 96 | – | – | – | – | – | – | –

Further lines, the molecule ahead of its results:

Row | Compound | IC50 (Liver Microsomes; [5]) [nM] | IC50 (Liver Microsomes; Summary of Activity table) [nM] | IC50 (bovine retinal pieces; Summary of Activity table, bovine retinal pieces) [nM] | IC50 (bovine retinal pieces; bovine retina, hypoxia 1 h, agent added after 50 minutes, reoxygenation 1 h, TBARS) [nM] | IC50 [2, 6] [nM] | IC50 [2, 7] [nM] | IC50 (bovine retinal pieces; [10]) [nM] | IC50 [4, 11] [nM] | IC50 [4, 12] [nM] | DPPH (% Quench), literature value [1] [%] | Singlet Oxygen Quenching Kq (Singlet oxygen quenching) | DPPH (% Quench) [3, 8] [%] | DPPH (% Quench) [3, 9] [%] | Damage to photoreceptor cells (retina of albino rats) | RPE damage (retina of albino rats) | outer and inner segment damage (photoreceptor length) (retina of albino rats) | reduction of number of pyknotic photoreceptor nuclei in the outer nuclear layer (retina of albino rats; compared to non-dosed animals) [%] | Macrophages in the subretinal space, compared to control values (retina of albino rats; vs control values) | Macrophages in the subretinal space, compared to non-dosed light exposed rats (retina of albino rats; vs non-dosed light exposed rats) | preservation of retinal function (electroretinogram) (retinal function of rats)
3 | Cc1c(C)c2c(c(C)c1O)CC[C@@](C)(CCC[C@H](C)CCC[C@H](C)CCCC(C)C)O2 [Vitamin E, α-tocopherol] | 37000 | 37000 | 1 | 1 | 4200 | 4200 | – | – | – | 90 | 1.2e+08 M⁻¹ s⁻¹ | 87 | 87 | – | – | – | – | – | – | –
4 | Cc1cc(C(C)(C)C)c(O)c(C(C)(C)C)c1 [BHT] | 1100 | 1100 | – | – | 201000 | 201000 | 500 | – | – | – | IA | 64 | 64 | – | – | – | – | – | – | –
5 | Cc1c(C)c2c(c(C)c1O)CCC(C)(CCN1CCN(C(c3ccc(F)cc3)c3ccc(F)cc3)CC1)O2 (stereo not drawn) [Compound No. 1, 1-(4,4'-difluorobenzhydryl)-4-(6-hydroxy-2,5,7,8-tetramethylchroman-2-ethyl)piperazine] | 1000 | 1000 | – | – | 3600 | 3600 | 10 | 1000 to 10000 | 1000 to 10000 | – | – | 99 | 99 | significantly minimized | greatly reduced | prevented outer and inner segment damage | 50 | not greater than control values | significantly reduced | Significant preservation of retinal function
